Here are results for 17 compounds from patent publication US8969345B2, “Dibenzooxepin derivative” (Kyowa Hakko Kirin Co., Ltd., priority 2011, dated 2015).

The structures appear in SMILES notation.

For data set [1], the target named is T1, GAL4-PPAR γ chimeric nuclear receptor (human PPAR γ ligand binding domain) (Homo sapiens, UniProt P37231).
T1 construct: expressed in transfected cells; host or cells: HEK293EBNA cells, transient transfection with SuperFect
T1 sequence (P37231 174-475 isoform P37231-2): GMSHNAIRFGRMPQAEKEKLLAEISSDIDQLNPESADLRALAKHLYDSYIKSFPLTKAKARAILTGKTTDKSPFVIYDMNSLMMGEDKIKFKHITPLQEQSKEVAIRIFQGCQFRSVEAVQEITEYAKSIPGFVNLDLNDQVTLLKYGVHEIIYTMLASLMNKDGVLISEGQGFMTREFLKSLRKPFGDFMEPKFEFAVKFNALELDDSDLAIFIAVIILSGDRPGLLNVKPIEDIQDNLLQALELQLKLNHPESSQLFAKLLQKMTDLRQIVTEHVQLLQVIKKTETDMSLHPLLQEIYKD
Nature of the data set: PPAR γ transactivation assay by transient gene transfer (GAL4-PPAR γ chimeric receptor, luciferase reporter, HEK293EBNA cells). The class given is cell-based. The conditions noted are these: concentration showing 50% of efficacy (maximum activity rate relative to pioglitazone = 100%), 24 hr. The method, then: The agonist activity of the test compound to PPAR γ was determined by a transactivation assay method using a chimeric nuclear receptor of a DNA binding region of a yeast transcription factor GAL4 and a PPAR γ ligand binding region. Specifically, the PPAR γ agonist activity of the test compound was evaluated by the following method based on the method of Lehmann et al. (J Biol. Chem., 1995, vol. 270, page 12953).
HEK293EBNA cells cultured in Dulbecco's Modified Eagle medium (Invitrogen) containing 10 v/v % fetal bovine serum (Invitrogen) were used. 30 mL of the above-mentioned cells (density: 1×10^5 cells/mL) were inoculated in a […] (Iwaki Glass), and cultured overnight. Using SuperFect Transfection Reagent (QIAGEN), a plasmid expressing a GAL4-PPAR γ chimeric nuclear receptor fusing 174-475 amino acids, which are human PPAR γ ligand binding domain, and 1-147 amino acids, which are GAL4 DNA binding domain, and a reporter plasmid expressing a GAL4 responsive luciferase were transiently introduced into the cells at a proportion of 4:1. After 5 hr from transfection, the cells were detached from the culture dish, and the detached cells (density: 2×10^4 cells/mL) were inoculated by 100 μL in each well of a 96 well white plate (SUMITOMO BAKELITE), and cultured overnight. The medium was removed, the test compound diluted in various concentrations with serum-free Dulbecco's Modified Eagle medium was added by 100 μL, and the mixture was reacted under a 5% carbon dioxide gas stream (5% CO2) at 37° C. for 24 hr. On the other hand, as a positive control, 10 μmol/L of pioglitazone (100 μL) was added, and the mixture was reacted under a 5% carbon dioxide gas stream (5% CO2) at 37° C. for 24 hr. As a substrate of luciferase, 100 μL of Steady-Glo (Promega) was added to each well and the mixture was thoroughly stirred. Immediately thereafter, the chemical luminescence due to luciferase was measured using TopCount NTX (Packard).
The agonist activity (activity rate (%)) of the test compound to PPAR γ was calculated according to the following formula, as a relative activity when the agonist activity on addition of pioglitazone ([…]) was 100%.
(In a reporter assay the amount or activity of a reporter protein is the signal.)

Data set [2] in a line: Metabolic stability evaluation in human liver microsome. The conditions noted are these: liver microsomes, pH 7.4; human liver microsome 0.2 mg/mL protein, test compound 1 μmol/L, β-NADPH, 37° C., 30 min; average of two samples; read-out: hCLint (converted). The class given is in vitro ADME. On the procedure: Human liver microsome (pool of 50 donors) was purchased from XenoTech. A reaction mixture containing phosphate buffer (100 mmol/L, pH 7.4), ethylenediamine tetraacetic acid (0.1 mmol/L), magnesium chloride (6 mmol/L), human liver microsome (0.2 mg/mL protein) and test compound (1 μmol/L) was prepared. The reaction mixture was preincubated at 37° C. for 5 min, β-NADPH (1 mmol/L) was added and the mixture was incubated at 37° C. for 30 min. The protein was removed with acetonitrile from the sample after the reaction and the sample was measured by LC-MS/MS. The ratio of the organic solvent in the reaction mixture was set to about 0.5%, and the reaction was performed in 2 samples.
The elimination rate constant (ke) was calculated from the linear regression of the logarithm plot of the residual ratio of the test compound and at 30 min after the reaction, and the liver inherent clearance (Cint) was calculated by the following formula.
[formula] ke: elimination rate constant (1/h) a: concentration (mg/mL) of liver microsome in the reaction mixture b: liver microsome amount per liver unit weight (32.3 mg/g liver) c: liver weight per unit body weight (25.7 g liver/kg body weight) Each test compound was tested in two samples, and the average thereof was calculated.
In general terms: Microsomes from liver hold many membrane-bound enzymes, among them those of drug oxidation.

A word on the EC50: it is the concentration that produces a half-maximal response. For the compound `CCCc1nc2ccccc2n1Cc1ccc2c(c1)COc1cc(F)ccc1/C2=C(\C)c1noc(=O)[nH]1` [Compound 1a, (E)-3-(1-{3-fluoro-8-[(2-propyl-1H-benzo[d]imidazol-1-yl)methyl]dibenzo[b,e]oxepin-11(6H)-ylidene}ethyl)-1,2,4-oxadiazol-5(4H)-one], in data set [1], the half-maximal effective concentration (EC50) is 7.4 nM. Also, the CLint scaled at 1 μmol/L in data set [2] is 53.3 mL/min/kg.

In data set [1], `COCc1nc2ccccc2n1Cc1ccc2c(c1)COc1cc(F)ccc1/C2=C(\C)c1noc(=O)[nH]1` [Compound 1b, (E)-3-[1-(3-fluoro-8-{[2-(methoxymethyl)-1H-benzo[d]imidazol-1-yl]methyl}dibenzo[b,e]oxepin-11(6H)-ylidene)ethyl]-1,2,4-oxadiazol-5(4H)-one] yielded a concentration giving a half-maximal response (EC50) of 11.7 nM. Also, the CLint scaled at 1 μmol/L in data set [2] is 31.7 mL/min/kg.

`C/C(=C1/c2ccc(Cn3c(C4CC4)nc4ccccc43)cc2COc2cc(F)ccc21)c1noc(=O)[nH]1` [Compound 1d, (E)-3-(1-{8-[(2-cyclopropyl-1H-benzo[d]imidazol-1-yl)methyl]-3-fluorodibenzo[b,e]oxepin-11(6H)-ylidene}ethyl)-1,2,4-oxadiazol-5(4H)-one] showed an EC50 in data set [1] of 9 nM. In addition, the CLint scaled at 1 μmol/L in data set [2] is 23.3 mL/min/kg.

In turn, `C/C(=C1/c2ccc(Cn3c(C4CC(F)(F)C4)nc4ccccc43)cc2COc2cc(F)ccc21)c1noc(=O)[nH]1` [Compound 1j, (E)-3-[1-(8-{[2-(3,3-difluorocyclobutyl)-1H-benzo[d]imidazol-1-yl]methyl}-3-fluorodibenzo[b,e]oxepin-11(6H)-ylidene)ethyl]-1,2,4-oxadiazol-5(4H)-one] had a concentration giving a half-maximal response (EC50) in data set [1] of 7.2 nM. For the same compound, the CLint scaled at 1 μmol/L in data set [2] was 28.3 mL/min/kg.

On to `[2H]C([2H])([2H])Oc1cccc2c1nc(COC)n2Cc1ccc2c(c1)COc1cc(F)ccc1/C2=C(\C)c1noc(=O)[nH]1` [Compound 2a, (E)-3-[1-(3-fluoro-8-{[4-(methoxy-d3)-2-(methoxymethyl)-1H-benzo[d]imidazol-1-yl]methyl}dibenzo[b,e]oxepin-11(6H)-ylidene)ethyl]-1,2,4-oxadiazol-5(4H)-one], for which the EC50 in data set [1] was 45.6 nM. Besides, in data set [2], the CLint scaled at 1 μmol/L is 7.33 mL/min/kg.

`CCCc1nc2c(C(N)=O)cccc2n1Cc1ccc2c(c1)COc1cc(F)ccc1/C2=C(\C)c1noc(=O)[nH]1` [Compound 2b, (E)-1-({3-fluoro-11-[1-(5-oxo-4,5-dihydro-1,2,4-oxadiazol-3-yl)ethylidene]-6,11-dihydrodibenzo[b,e]oxepin-8-yl}methyl)-2-propyl-1H-benzo[d]imidazole-4-carboxamide]: the EC50 in data set [1] was 59.5 nM. Moreover, the CLint scaled at 1 μmol/L in data set [2] is 26.7 mL/min/kg.

`C/C(=C1/c2ccc(Cn3c(C4CCC4)nc4c(Cl)nccc43)cc2COc2cc(F)ccc21)c1noc(=O)[nH]1` [Compound 3b, (E)-3-(1-{8-[(4-chloro-2-cyclobutyl-1H-imidazo[4,5-c]pyridin-1-yl)methyl]-3-fluorodibenzo[b,e]oxepin-11(6H)-ylidene}ethyl)-1,2,4-oxadiazol-5(4H)-one]: the EC50 in data set [1] is 22.8 nM. Besides, the CLint scaled at 1 μmol/L in data set [2] is 9.5 mL/min/kg.

In turn, `C/C(=C1/c2ccc(Cn3c(C4CCC4)nc4nc(F)ccc43)cc2COc2cc(F)ccc21)c1noc(=O)[nH]1` [Compound 3i, (E)-3-(1-{8-[(2-cyclobutyl-5-fluoro-1H-imidazo[4,5-b]pyridin-1-yl)methyl]-3-fluorodibenzo[b,e]oxepin-11(6H)-ylidene}ethyl)-1,2,4-oxadiazol-5(4H)-one] gave an EC50 in data set [1] of 8.5 nM. Further, the CLint scaled at 1 μmol/L in data set [2] is 21.7 mL/min/kg.

With `C/C(=C1/c2ccc(Cn3c(CN(C)C)nc4ccccc43)cc2COc2cc(F)ccc21)c1noc(=O)[nH]1` [Compound 4a, (E)-3-{1-[8-({2-[(dimethylamino)methyl]-1H-benzo[d]imidazol-1-yl}methyl)-3-fluorodibenzo[b,e]oxepin-11(6H)-ylidene]ethyl}-1,2,4-oxadiazol-5(4H)-one], the response in data set [1] was half-maximal at 33.5 nM (EC50). In data set [2], the CLint scaled at 1 μmol/L is 31.7 mL/min/kg.

`CCCc1nc2ccccc2n1Cc1ccc2c(c1)COc1cc(F)ccc1/C2=C(/c1noc(=O)[nH]1)C1CC1` [Compound 4g, (E)-3-(cyclopropyl{3-fluoro-8-[(2-propyl-1H-benzo[d]imidazol-1-yl)methyl]dibenzo[b,e]oxepin-11(6H)-ylidene}methyl)-1,2,4-oxadiazol-5(4H)-one] came in with a concentration giving a half-maximal response (EC50) in data set [1] of 54.9 nM. For the same compound, the CLint scaled at 1 μmol/L in data set [2] was 78.3 mL/min/kg.

Compound `CC/C(=C1/c2ccc(Cn3c(COC)nc4ccccc43)cc2COc2cc(F)ccc21)c1noc(=O)[nH]1` [Compound 4l, (E)-3-[1-(3-fluoro-8-{[2-(methoxymethyl)-1H-benzo[d]imidazol-1-yl]methyl}dibenzo[b,e]oxepin-11(6H)-ylidene)propyl]-1,2,4-oxadiazol-5(4H)-one] registered an EC50 in data set [1] of 38 nM. Besides, the CLint scaled at 1 μmol/L in data set [2] was 36.7 mL/min/kg.

In turn, `CCCc1nc2ccccc2n1Cc1ccc2c(c1)COc1cc(F)c(F)cc1/C2=C(\C)c1noc(=O)[nH]1` [Compound 6a, (E)-3-(1-{2,3-difluoro-8-[(2-propyl-1H-benzo[d]imidazol-1-yl)methyl]dibenzo[b,e]oxepin-11(6H)-ylidene}ethyl)-1,2,4-oxadiazol-5(4H)-one] registered a 50% effective concentration (EC50) in data set [1] of 11.5 nM. Besides, the CLint scaled at 1 μmol/L in data set [2] is 33.3 mL/min/kg.

Compound `CCCc1nc2ccccc2n1Cc1ccc2c(c1)COc1c(ccc(F)c1F)/C2=C(\C)c1noc(=O)[nH]1` [Compound 7a, (E)-3-(1-{3,4-difluoro-8-[(2-propyl-1H-benzo[d]imidazol-1-yl)methyl]dibenzo[b,e]oxepin-11(6H)-ylidene}ethyl)-1,2,4-oxadiazol-5(4H)-one] registered an EC50 in data set [1] of 27.7 nM. Also, in data set [2], the CLint scaled at 1 μmol/L is 48.3 mL/min/kg.

For the compound `C/C(=C1/c2ccc(Cc3c(C4CC4)nc4c(Cl)cccn34)cc2COc2cc(F)ccc21)c1noc(=O)[nH]1` [Compound 8a, (E)-3-(1-{8-[(8-chloro-2-cyclopropylimidazo[1,2-a]pyridin-3-yl)methyl]-3-fluorodibenzo[b,e]oxepin-11(6H)-ylidene}ethyl)-1,2,4-oxadiazol-5(4H)-one], the half-maximal effective concentration (EC50) in data set [1] is 4.2 nM. In addition, the CLint scaled at 1 μmol/L in data set [2] is 36.7 mL/min/kg.

On to `C/C(=C1/c2ccc(Cc3c(C4CC4)nc4ccccn34)cc2COc2cc(F)ccc21)c1noc(=O)[nH]1` [Compound 8b, (E)-3-(1-{8-[(2-cyclopropylimidazo[1,2-a]pyridin-3-yl)methyl]-3-fluorodibenzo[b,e]oxepin-11(6H)-ylidene}ethyl)-1,2,4-oxadiazol-5(4H)-one], for which, in data set [1], the response was half-maximal at 27.7 nM (EC50). In data set [2], the CLint scaled at 1 μmol/L is 40 mL/min/kg.

`C/C(=C1/c2ccc(Cc3c(C(C)C)nc4ccccn34)cc2COc2cc(F)ccc21)c1noc(=O)[nH]1` [Compound 8c, (E)-3-(1-{3-fluoro-8-[(2-isopropylimidazo[1,2-a]pyridin-3-yl)methyl]dibenzo[b,e]oxepin-11(6H)-ylidene}ethyl)-1,2,4-oxadiazol-5(4H)-one] registered an EC50 in data set [1] of 33.3 nM. For the same compound, the CLint scaled at 1 μmol/L in data set [2] was 50 mL/min/kg.

In the case of `COCc1nc2ccccn2c1Cc1ccc2c(c1)COc1cc(F)ccc1/C2=C(\C)c1noc(=O)[nH]1` [Compound 8f, (E)-3-[1-(3-fluoro8-{[2-(methoxymethyl)imidazo[1,2-a]pyridin-3-yl]methyl}dibenzo[b,e]oxepin-11(6H)-ylidene)ethyl]-1,2,4-oxadiazol-5(4H)-one], it took 31.7 nM to reach a half-maximal effect in data set [1] (EC50). For the same compound, in data set [2], the CLint scaled at 1 μmol/L was 16.7 mL/min/kg.
